Assay results from patent US20110200626A1, “IQGAP3 EPITOPE PEPTIDES AND VACCINES CONTAINING THE SAME” (Oncotherapy Science, Inc., priority 2008, published 2011).
Entries after “also recorded” stand apart in the source; their conditions may differ. Ends that are not written are not given here.

Key:
peptide-pulsed T2 cells [1] = experiment: IFN-gamma ELISPOT assay on CTLs induced with HLA-A*0201 restricted peptides; format: cell-based, human; details: against peptide-pulsed target cells compared with control without peptide
peptide-pulsed T2 cells [2] = experiment: IFN-gamma ELISA assay on CTL lines (HLA-A*0201); format: cell-based, human; details: target cells pulsed with corresponding peptide vs without peptide
peptide-pulsed T2 cells [3] = experiment: IFN-gamma ELISA assay on CTL clones established by limiting dilution (HLA-A*0201); format: cell-based, human; details: peptide-pulsed target cells
Method: The dilutions were made to have 0.3, 1, and 3 CTLs/well in 96 round-bottomed micro titer plate (Nalge Nunc International). CTLs were cultured with 1×10^4 cells/well of 2 kinds of human B-lymphoblastoid cell lines, 30 ng/ml of anti-CD3 antibody, and 125 U/ml of IL-2 in a total of 150 and/well of AIM-VMedium containing 5% AS. 50 mcl/well of IL-2 were added to the medium 10 days later so to reach a final concentration of 125 U/ml IL-2. CTL activity was tested on the 14th day, and CTL clones were expanded using the same method as described above (Uchida N et al., Clin Cancer Res 2004 Dec. 15, 10(24): 8577-86; Suda T et al., Cancer Sci 2006 May, 97(5): 411-9; Watanabe T et al., Cancer Sci 2005 August, 96(8): 498-506).
Specifically, peptide-pulsed A24 or T2 LCL (1×10^4/well) was prepared as stimulator cells. Cultured cells in 48 wells were used as responder cells. IFN-gamma ELISPOT assay and IFN-gamma ELISA assay were performed under manufacture procedure.

[4] = system: COS7 cells transfected with IQGAP3 and HLA-A*0201; experiment: Specific CTL activity against target cells exogenously expressing IQGAP3 and HLA-A*0201; format: cell-based; details: for specific CTL activity of CTL clone against controls: COS7 cells expressing either HLA-A*0201 or IQGAP3 alone; for specific CTL activity of CTL clone: COS7 cells transfected with both IQGAP3 and HLA-A*0201
Excerpt: (§1) The cDNA encoding an open reading frame of target genes or HLA-A*0201 was amplified by PCR. The PCR-amplified products were cloned into pCAGGS vector. The plasmids were transfected into COST, which is the target genes and HLA-A*0201-negative cell line, using lipofectamine 2000 (Invitrogen) according to the manufacturer's recommended procedures. After 2 days from transfection, the transfected cells were harvested with versene (Invitrogen) and used as the target cells (5×10^4 cells/well) for CTL activity assay

[5] = system: peptide-pulsed A24LCL cells; experiment: IFN-gamma ELISPOT assay on CTLs induced with HLA-A*2402 restricted peptides; format: cell-based, human; details: against peptide-pulsed target cells compared with control without peptide, listed as IQGAP3-A24-9-779
[6] = system: peptide-pulsed A24LCL cells; experiment: IFN-gamma ELISA assay on CTL lines (HLA-A*2402); format: cell-based, human; details: target cells pulsed with corresponding peptide vs without peptide
[7] = system: COS7 cells transfected with IQGAP3 and HLA-A*2402; experiment: Specific CTL activity against target cells exogenously expressing IQGAP3 and HLA-A*2402; format: cell-based
Excerpt: as §1, with “gene” for “genes”, “HLA-A24” for “HLA-A*0201”, “product was” for “products were”, “COS7,” for “COST,”, “HLA-A24-null” for “HLA-A*0201-negative”, “assay.” for “assay”

GLDDVSLPV [SEQ ID NO: 85]
IFN-gamma production of peptide-induced CTLs (ELISPOT) (peptide-pulsed T2 cells [1]; listed as IQGAP3-A02-9-553): potent IFN-gamma production ability | IFN-gamma production of established CTL lines (ELISA) (peptide-pulsed T2 cells [2]): potent IFN-gamma production | IFN-gamma production of CTL clones (ELISA) (peptide-pulsed T2 cells [3]; listed as IQGAP3-A02-9-553): potent IFN-gamma production | specific CTL activity of CTL clone against controls [4]: no significant specific CTL activity | specific CTL activity of CTL clone ([4]; listed as IQGAP3-A02-9-553): potent CTL activity; also recorded: specific CTL activity

IYLEWLQYF [SEQ ID NO: 7]
IFN-gamma production of peptide-induced CTLs (ELISPOT) [5]: potent IFN-gamma production ability | IFN-gamma production of established CTL lines (ELISA) [6]: potent IFN-gamma production | specific CTL activity of CTL line against controls ([7]; COS7 cells expressing either HLA-A*2402 or IQGAP3 alone): no significant specific CTL activity | specific CTL activity of CTL line ([7]; COS7 cells transfected with both IQGAP3 and HLA-A*2402, listed as IQGAP3-A24-9-779): potent CTL activity; also recorded: specific CTL activity

LLYYrFLNPA (LLYYRFLNPA; not fully specified (residue 5); printed as LLYYrFLNPA) [SEQ ID NO: 121]
IFN-gamma production of peptide-induced CTLs (ELISPOT) (peptide-pulsed T2 cells [1]; listed as IQGAP3-A02-10-1174): potent IFN-gamma production ability | IFN-gamma production of established CTL lines (ELISA) (peptide-pulsed T2 cells [2]): potent IFN-gamma production | IFN-gamma production of CTL clones (ELISA) (peptide-pulsed T2 cells [3]; listed as IQGAP3-A02-10-1174): potent IFN-gamma production

SLFLFRLGL [SEQ ID NO: 75]
IFN-gamma production of peptide-induced CTLs (ELISPOT) (peptide-pulsed T2 cells [1]; listed as IQGAP3-A02-9-146): potent IFN-gamma production ability | IFN-gamma production of established CTL lines (ELISA) (peptide-pulsed T2 cells [2]): potent IFN-gamma production | IFN-gamma production of CTL clones (ELISA) (peptide-pulsed T2 cells [3]; listed as IQGAP3-A02-9-146): potent IFN-gamma production

VLNDYLEET [SEQ ID NO: 99]
IFN-gamma production of peptide-induced CTLs (ELISPOT) (peptide-pulsed T2 cells [1]; listed as IQGAP3-A02-9-1234): potent IFN-gamma production ability | IFN-gamma production of established CTL lines (ELISA) (peptide-pulsed T2 cells [2]): potent IFN-gamma production | specific CTL activity of CTL clone against controls [4]: no significant specific CTL activity | specific CTL activity of CTL clone ([4]; listed as IQGAP3-A02-9-1234): potent CTL activity; also recorded: specific CTL activity
